Reference: patent publication US11426397B2, “Piperidinyl- and piperazinyl-substituted heteroaromatic carboxamides as modulators of GPR6” (TAKEDA PHARMACEUTICAL COMPANY LIMITED, priority 2017, dated 2022)

molecular target: T1, GPR6 receptor expressed in CHO-K1 cells (Homo sapiens, UniProt P46095); assay: In vitro inhibition of cAMP (EC50), cell-based HTRF cAMP assay; conditions: inhibition of constitutive cAMP activity of GPR6 in CHO-K1 cells
T1 construct: expressed in transfected cells
Protocol: I. In Vitro Inhibition of cAMP (EC50)
This cell based assay measures the ability of test compounds to inhibit the constitutive cAMP activity of GPR6 receptor expressed in CHO-K1 cells. CHO cells are stably expressed with GPR6 receptor, whose expression is controlled by a tetracycline inducible element. The cells were cultured in medium containing F12K, 10% FBS, 1% Penn/Strep, 200 μg/mL Hygromycin. GPR6 receptor expression is induced for 20 hours with 2 μg/mL doxycycline (Sigma D9891) in growth media. After addition of doxycycline, the cells are plated at a density of 450-750 cells per well in 96-well half-volume black tissue culture plates (Costar) and placed in an incubator (37° C., 5% CO2) for 20 hours prior to cAMP assays.
Culture media is removed from the cells and they are washed with 50 μL/well of Ringer's Buffer (MgCl2 0.047 mg/mL, NaH2PO4 0.18 mg/mL, Na2HPO4 0.1 mg/mL, KCl 0.34 mg/mL, NaHCO3 1.26 mg/mL, D-glucose 1.8 mg/mL, NaCl 7 mg/mL; pH=7.4). The test compounds are suspended in DMSO, diluted in Ringer's Buffer containing 0.5% fatty acid free BSA plus 300 μM IBMX, and incubated on the cells for 45 minutes at 37° C. and 5% CO2. After incubation, the cells are conditioned for 10 minutes at room temp with Eu-cAMP tracer solution from a Perkin Elmer Lance HTRF Ultra cAMP assay kit (TRF0263). Then ULight™-anti-cAMP solution from the Lance HTRF kit is added and incubated on a shaker at room temp for 1 hour prior to HTRF detection in a Perkin Elmer Envision plate reader. EC50 curves are generated with a four-parameter logistic equation using GraphPad Prism 5.03.
Table 1 lists biological assay data (in vitro inhibition of cAMP) for some of the compounds shown in the examples, where larger pEC50 values represent higher activity or potency. All of the compounds shown in Table 1 were tested in accordance with a cell-based assay which measures the ability of test compounds to inhibit the constitutive cAMP activity of GPR6 receptor expressed in CHO-K1 cells (reported as pEC50). The assay is described in the specification under the heading “In vitro inhibition of cAMP (EC50).”

T1 sequence (P46095 whole entry): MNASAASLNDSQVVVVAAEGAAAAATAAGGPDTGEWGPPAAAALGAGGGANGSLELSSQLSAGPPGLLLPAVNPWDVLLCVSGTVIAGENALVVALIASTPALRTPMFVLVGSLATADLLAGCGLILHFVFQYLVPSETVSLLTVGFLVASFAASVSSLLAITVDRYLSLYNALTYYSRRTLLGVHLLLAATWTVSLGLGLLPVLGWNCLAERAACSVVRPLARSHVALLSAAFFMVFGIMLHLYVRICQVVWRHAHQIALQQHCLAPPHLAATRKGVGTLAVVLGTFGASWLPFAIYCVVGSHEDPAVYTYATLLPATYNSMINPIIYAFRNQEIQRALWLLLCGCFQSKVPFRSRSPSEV

| SMILES | pEC50, in vitro inhibition of cAMP |
| --- | --- |
| CS(=O)(=O)c1ccc(N2CCC(Oc3ccc(F)cc3F)CC2)c(NC(=O)c2cnn3c2OCCCC3)c1 [Example 38, N-(2-(4-(2,4-difluorophenoxy)piperidin-1-yl)-5-(methylsulfonyl)phenyl)-5,6,7,8-tetrahydropyrazolo[5,1-b][1,3]oxazepine-3-carboxamide] | 6.8 |
| COc1nc(C)ccc1C(=O)Nc1cc(C#N)c(F)cc1N1CCC(Oc2ccc(F)cc2F)CC1 [Example 39, N-(5-cyano-2-(4-(2,4-difluorophenoxy)piperidin-1-yl)-4-fluorphenyl)-2-methoxy-6-methylnicotinamide] | 7.3 |
| COc1ncccc1C(=O)Nc1cnc(C)cc1N1CCC(Oc2ccc(C#N)cc2F)CC1 [Example 40, N-(4-(4-(4-cyano-2-fluorophenoxy)piperidin-1-yl)-6-methylpyridin-3-yl)-2-methoxynicotinamide] | 6.2 |
| COc1ccsc1C(=O)Nc1cc(C#N)ccc1N1CCC(Oc2ccc(F)cc2F)CC1 [Example 46, N-(5-cyano-2-(4-(2,4-difluorophenoxy)piperidin-1-yl)phenyl)-3-methoxythiophene-2-carboxamide] | 7.2 |
| COc1cscc1C(=O)Nc1cc(C#N)ccc1N1CCC(Oc2ccc(F)cc2F)CC1 [Example 47, N-(5-cyano-2-(4-(2,4-difluorophenoxy)piperidin-1-yl)phenyl)-4-methoxythiophene-3-carboxamide] | 7.2 |
| N#Cc1ccc(N2CCC(Oc3ccc(F)cc3F)CC2)c(NC(=O)c2cc3cccn3cn2)c1 [Example 48, N-(5-cyano-2-(4-(2,4-difluorophenoxy)piperidin-1-yl)phenyl)pyrrolo[1,2-c]pyrimidine-3-carboxamide] | 6.8 |
| N#Cc1ccc(N2CCC(Oc3ccc(F)cc3F)CC2)c(NC(=O)c2ncc(F)cc2F)c1 [Example 49, N-(5-cyano-2-(4-(2,4-difluorophenoxy)piperidin-1-yl)phenyl)-3,5-difluoropicolinamide] | 6.5 |

Other lines, results leading:

| pEC50, in vitro inhibition of cAMP | SMILES |
| --- | --- |
| 6.4 | Cc1cc(C(=O)Nc2cc(C#N)ccc2N2CCC(Oc3ccc(F)cc3F)CC2)no1 [Example 41, N-(5-cyano-2-(4-(2,4-difluorophenoxy)piperidin-1-yl)phenyl)-5-methylisoxazole-3-carboxamide] |
| 6.9 | Cn1ccc(C(=O)Nc2cc(C#N)ccc2N2CCC(Oc3ccc(F)cc3F)CC2)n1 [Example 42, N-(5-cyano-2-(4-(2,4-difluorophenoxy)piperidin-1-yl)phenyl)-1-methyl-1H-pyrazole-3-carboxamide] |
| 6.1 | Cc1nc(C(=O)Nc2cc(C#N)ccc2N2CCC(Oc3ccc(F)cc3F)CC2)co1 [Example 43, N-(5-cyano-2-(4-(2,4-difluorophenoxy)piperidin-1-yl)phenyl)-2-methyloxazole-4-carboxamide] |
| 6.2 | N#Cc1ccc(N2CCC(Oc3ccc(F)cc3F)CC2)c(NC(=O)c2cnccn2)c1 [Example 44, N-(5-cyano-2-(4-(2,4-difluorophenoxy)piperidin-1-yl)phenyl)pyrazine-2-carboxamide] |
| 6.6 | Cn1cnc(C(=O)Nc2cc(C#N)ccc2N2CCC(Oc3ccc(F)cc3F)CC2)c1 [Example 45, N-(5-cyano-2-(4-(2,4-difluorophenoxy)piperidin-1-yl)phenyl)-1-methyl-1H-imidazole-4-carboxamide] |
| 6.2 | Cn1ccnc1C(=O)Nc1cc(C#N)ccc1N1CCC(Oc2ccc(F)cc2F)CC1 [Example 50, N-(5-cyano-2-(4-(2,4-difluorophenoxy)piperidin-1-yl)phenyl)-1-methyl-1H-imidazole-2-carboxamide] |
| 6.8 | Cc1csc(C(=O)Nc2cc(C#N)ccc2N2CCC(Oc3ccc(F)cc3F)CC2)n1 [Example 51, N-(5-cyano-2-(4-(2,4-difluorophenoxy)piperidin-1-yl)phenyl)-4-methylthiazole-2-carboxamide] |
